Test results: ChEMBL document CHEMBL1212831, “Discovery of N-[(2S)-5-(6-fluoro-3-pyridinyl)-2,3-dihydro-1H-inden-2-yl]-2-propanesulfonamide, a novel clinical AMPA receptor positive modulator” (J Med Chem, 2010); call rule not given here
Values after ≈ are worked out from the molar mass of the structure shown.

What was measured:
[1] = Tmax in cynomolgus monkey at 0.5 mg/kg, po; type: ADME, organism-based, Macaca fascicularis; parameters: dose 0.5 mg/kg, route oral; details: in vivo
[2] = Oral bioavailability in Beagle dog at 0.5 mg/kg; type: ADME, organism-based, Canis lupus familiaris; details: in vivo
[3] = Blood clearance in Sprague-Dawley rat at 1 mg/kg, iv and 3 mg/kg, po; type: ADME, organism-based
[4] = Cmax in Beagle dog at 0.5 mg/kg, po; type: ADME, organism-based, Canis lupus familiaris; parameters: dose 0.5 mg/kg, route oral; details: in vivo
Cytochrome P450 2C19 = Cytochrome P450 2C19 (Homo sapiens, UniProt P33261)
Chain of Cytochrome P450 2C19 (P33261 whole entry): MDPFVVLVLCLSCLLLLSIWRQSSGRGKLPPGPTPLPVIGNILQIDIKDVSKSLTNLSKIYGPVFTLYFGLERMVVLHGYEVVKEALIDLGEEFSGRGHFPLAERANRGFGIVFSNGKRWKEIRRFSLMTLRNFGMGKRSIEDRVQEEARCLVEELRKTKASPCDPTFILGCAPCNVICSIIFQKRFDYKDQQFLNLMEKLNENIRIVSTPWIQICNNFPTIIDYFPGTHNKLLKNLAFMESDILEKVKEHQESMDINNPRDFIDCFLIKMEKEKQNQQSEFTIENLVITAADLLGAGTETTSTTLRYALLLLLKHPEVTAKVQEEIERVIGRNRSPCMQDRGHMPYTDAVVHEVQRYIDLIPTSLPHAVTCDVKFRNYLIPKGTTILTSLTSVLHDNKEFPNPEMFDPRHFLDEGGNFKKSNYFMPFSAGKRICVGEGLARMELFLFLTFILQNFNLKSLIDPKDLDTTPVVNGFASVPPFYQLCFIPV
Description: Inhibition of human CYP2C19 after 10 mins

Brain = test: Drug level in po dosed Lister Hooded rat brain assessed per gram of tissue; type: ADME, organism-based; details: in vivo
[5] = Equilibrium solubility of the compound in simulated gastric fluid at pH 2 to 10; type: physicochemical
Glutamate receptor 2 = Glutamate receptor 2 (Homo sapiens, UniProt P42262); test: Activation of human recombinant GluR2 flip isoform expressed in HEK293 cells assessed as increase of glutamate-induced inward current by whole cell voltage-clamp electrophysiology; type: cell-based
Chain of Glutamate receptor 2 (P42262 whole entry, canonical isoform): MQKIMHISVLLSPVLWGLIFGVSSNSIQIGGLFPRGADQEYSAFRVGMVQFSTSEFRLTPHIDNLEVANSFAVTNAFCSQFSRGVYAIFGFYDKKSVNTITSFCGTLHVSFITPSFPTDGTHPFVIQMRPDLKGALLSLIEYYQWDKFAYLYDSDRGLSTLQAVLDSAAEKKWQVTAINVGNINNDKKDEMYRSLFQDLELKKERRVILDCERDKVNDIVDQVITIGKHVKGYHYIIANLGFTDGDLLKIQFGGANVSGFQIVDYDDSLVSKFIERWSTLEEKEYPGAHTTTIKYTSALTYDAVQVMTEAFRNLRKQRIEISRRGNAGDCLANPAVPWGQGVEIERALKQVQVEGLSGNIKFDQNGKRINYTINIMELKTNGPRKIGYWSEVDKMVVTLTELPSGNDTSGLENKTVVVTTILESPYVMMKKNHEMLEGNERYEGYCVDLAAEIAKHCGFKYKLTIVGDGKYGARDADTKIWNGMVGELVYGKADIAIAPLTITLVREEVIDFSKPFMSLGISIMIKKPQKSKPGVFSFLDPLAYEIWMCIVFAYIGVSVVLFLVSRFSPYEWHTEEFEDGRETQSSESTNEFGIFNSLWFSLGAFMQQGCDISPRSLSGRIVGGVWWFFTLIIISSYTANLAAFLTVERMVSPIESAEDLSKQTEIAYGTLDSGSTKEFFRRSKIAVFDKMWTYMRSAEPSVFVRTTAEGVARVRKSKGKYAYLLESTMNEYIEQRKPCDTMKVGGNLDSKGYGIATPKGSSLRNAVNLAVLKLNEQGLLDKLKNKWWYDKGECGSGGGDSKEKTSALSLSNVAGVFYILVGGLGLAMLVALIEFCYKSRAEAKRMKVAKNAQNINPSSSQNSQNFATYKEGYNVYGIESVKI

[6] = Plasma protein binding in monkey at 1 ug/ml after 6 hrs by equilibrium dialysis method; type: ADME, cell-free, Macaca mulatta; details: rhesus monkey, read-out: PPB (converted)
Cytochrome P450 2D6 = Cytochrome P450 2D6 (Homo sapiens, UniProt P10635)
Chain of Cytochrome P450 2D6 (P10635 whole entry): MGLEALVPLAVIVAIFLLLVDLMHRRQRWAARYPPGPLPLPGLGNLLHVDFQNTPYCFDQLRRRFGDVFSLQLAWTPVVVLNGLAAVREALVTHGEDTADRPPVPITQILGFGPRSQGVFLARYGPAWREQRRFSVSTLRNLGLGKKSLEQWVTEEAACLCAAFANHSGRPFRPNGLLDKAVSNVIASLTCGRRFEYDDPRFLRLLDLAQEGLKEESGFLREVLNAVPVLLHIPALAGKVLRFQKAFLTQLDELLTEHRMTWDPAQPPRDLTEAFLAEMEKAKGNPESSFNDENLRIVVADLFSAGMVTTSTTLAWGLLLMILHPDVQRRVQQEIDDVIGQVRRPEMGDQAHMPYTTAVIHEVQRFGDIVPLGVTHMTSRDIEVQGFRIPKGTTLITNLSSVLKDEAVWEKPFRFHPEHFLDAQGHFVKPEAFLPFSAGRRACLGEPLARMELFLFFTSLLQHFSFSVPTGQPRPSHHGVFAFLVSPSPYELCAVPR
Description: Inhibition of human CYP2D6 after 10 mins

[7] = Plasma protein binding in human at 1 ug/ml after 6 hrs by equilibrium dialysis method; type: ADME, cell-free; details: read-out: PPB (converted)
Canis familiaris = test: Liver blood flow in Beagle dog at 0.125 mg/kg, iv and 0.5 mg/kg, po; type: ADME, organism-based, Canis lupus familiaris; details: in vivo
Rattus norvegicus = test: Liver blood flow in Sprague-Dawley rat at 1 mg/kg, iv and 3 mg/kg, po; type: ADME, organism-based; details: in vivo
Homo sapiens = test: Toxicity in human at 0.25 to 6 mg/kg administered as single dose; type: organism-based; parameters: dose 0.25-6 mg/kg; details: in vivo
[8] = Volume of distribution at steady state in Sprague-Dawley rat at 1 mg/kg, iv and 3 mg/kg, po; type: ADME, organism-based; details: in vivo, read-out: Vdss
[9] = Cmax in cynomolgus monkey at 0.5 mg/kg, po; type: ADME, organism-based, Macaca fascicularis; parameters: dose 0.5 mg/kg, route oral; details: in vivo
Blood = test: Drug level in po dosed Lister Hooded rat blood; type: ADME, organism-based; details: in vivo
Cynomolgus monkey = test: Liver blood flow in cynomolgus monkey at 0.125 mg/kg, iv and 0.5 mg/kg, po; type: ADME, organism-based, Macaca fascicularis; details: in vivo
Cytochrome P450 2C9 = Cytochrome P450 2C9 (Homo sapiens, UniProt P11712)
Chain of Cytochrome P450 2C9 (P11712 whole entry): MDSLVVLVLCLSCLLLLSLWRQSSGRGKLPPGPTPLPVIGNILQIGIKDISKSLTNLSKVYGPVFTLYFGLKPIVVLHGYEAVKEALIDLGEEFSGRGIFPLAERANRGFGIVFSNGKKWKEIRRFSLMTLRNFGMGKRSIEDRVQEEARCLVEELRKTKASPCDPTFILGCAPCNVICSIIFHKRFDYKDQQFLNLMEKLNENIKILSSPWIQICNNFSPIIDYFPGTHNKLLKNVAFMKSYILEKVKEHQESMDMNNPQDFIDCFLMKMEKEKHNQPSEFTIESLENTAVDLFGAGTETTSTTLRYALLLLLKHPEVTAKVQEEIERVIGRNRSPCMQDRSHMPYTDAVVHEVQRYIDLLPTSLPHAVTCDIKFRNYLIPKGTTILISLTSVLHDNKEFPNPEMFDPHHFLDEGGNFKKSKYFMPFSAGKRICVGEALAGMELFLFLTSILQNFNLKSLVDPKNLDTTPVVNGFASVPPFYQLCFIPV
Description: Inhibition of human CYP2C9 after 10 mins

[10] = biological target: Voltage-gated inwardly rectifying potassium channel KCNH2 (Homo sapiens, UniProt Q12809); test: Inhibition of human ERG
Chain of Voltage-gated inwardly rectifying potassium channel KCNH2 (Q12809 whole entry): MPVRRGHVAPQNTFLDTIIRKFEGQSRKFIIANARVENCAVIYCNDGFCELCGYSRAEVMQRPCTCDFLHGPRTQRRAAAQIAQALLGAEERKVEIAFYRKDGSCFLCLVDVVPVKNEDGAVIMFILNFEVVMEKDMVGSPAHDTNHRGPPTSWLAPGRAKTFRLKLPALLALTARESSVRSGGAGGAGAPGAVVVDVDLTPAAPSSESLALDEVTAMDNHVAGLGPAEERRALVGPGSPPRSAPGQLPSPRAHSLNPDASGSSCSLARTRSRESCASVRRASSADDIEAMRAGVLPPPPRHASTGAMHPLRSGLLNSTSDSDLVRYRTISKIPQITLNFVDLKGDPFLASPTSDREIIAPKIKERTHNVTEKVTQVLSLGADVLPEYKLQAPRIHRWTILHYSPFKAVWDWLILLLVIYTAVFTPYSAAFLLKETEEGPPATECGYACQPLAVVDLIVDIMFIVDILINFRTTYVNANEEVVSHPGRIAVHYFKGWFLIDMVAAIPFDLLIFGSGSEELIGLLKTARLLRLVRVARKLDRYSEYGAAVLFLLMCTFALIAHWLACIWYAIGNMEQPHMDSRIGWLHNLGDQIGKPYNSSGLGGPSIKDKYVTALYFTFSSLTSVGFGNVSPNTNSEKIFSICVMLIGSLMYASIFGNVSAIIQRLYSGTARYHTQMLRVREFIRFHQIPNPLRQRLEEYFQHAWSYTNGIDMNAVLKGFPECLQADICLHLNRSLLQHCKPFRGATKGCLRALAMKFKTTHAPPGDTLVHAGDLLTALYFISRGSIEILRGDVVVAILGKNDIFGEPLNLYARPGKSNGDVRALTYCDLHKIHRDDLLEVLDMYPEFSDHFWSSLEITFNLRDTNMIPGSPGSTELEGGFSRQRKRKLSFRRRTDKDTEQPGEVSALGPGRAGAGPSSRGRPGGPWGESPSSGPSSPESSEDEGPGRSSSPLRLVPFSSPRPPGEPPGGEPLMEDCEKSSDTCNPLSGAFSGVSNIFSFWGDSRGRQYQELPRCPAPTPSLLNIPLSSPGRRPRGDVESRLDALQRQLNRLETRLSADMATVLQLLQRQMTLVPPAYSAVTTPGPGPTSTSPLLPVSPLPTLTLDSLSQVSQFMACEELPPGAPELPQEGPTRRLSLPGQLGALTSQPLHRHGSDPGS

Cytochrome P450 3A4 = Cytochrome P450 3A4 (Homo sapiens, UniProt P08684)
Chain of Cytochrome P450 3A4 (P08684 whole entry): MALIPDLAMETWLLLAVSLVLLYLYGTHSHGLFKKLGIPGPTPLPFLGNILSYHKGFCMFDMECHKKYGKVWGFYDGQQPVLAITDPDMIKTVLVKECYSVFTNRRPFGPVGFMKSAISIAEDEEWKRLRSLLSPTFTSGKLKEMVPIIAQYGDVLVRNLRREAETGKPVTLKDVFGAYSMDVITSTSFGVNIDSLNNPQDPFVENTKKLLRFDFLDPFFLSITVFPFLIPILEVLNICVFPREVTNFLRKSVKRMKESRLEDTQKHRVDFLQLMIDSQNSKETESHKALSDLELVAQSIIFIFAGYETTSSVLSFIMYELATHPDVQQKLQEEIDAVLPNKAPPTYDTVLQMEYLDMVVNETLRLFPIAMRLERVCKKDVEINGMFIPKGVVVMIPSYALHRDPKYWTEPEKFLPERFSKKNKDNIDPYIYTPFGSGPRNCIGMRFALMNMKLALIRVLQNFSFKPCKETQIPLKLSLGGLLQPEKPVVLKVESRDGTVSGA
Description: Inhibition of human CYP3A4 after 10 mins

[11] = Half life in Sprague-Dawley rat at 1 mg/kg, iv; type: ADME, organism-based; parameters: dose 1 mg/kg, route intravenous; details: in vivo
[12] = Oral bioavailability in Sprague-Dawley rat at 3 mg/kg; type: ADME, organism-based; details: in vivo

- Tmax [1]: 6 h
- bioavailability [2]: 61%
- clearance [3]: 5.4 mL/min/kg
- Cmax [4]: 116 ng/mL
- IC50 (Cytochrome P450 2C19): > 10 µM
- Drug uptake (Brain): 122 ng/g
- solubility thermodynamic [5]: 100 µg/mL (≈ 299 µM)
- Activity (Glutamate receptor 2): Dose-dependent effect
- fraction unbound at 6 h, 1 ug/ml [6]: 0.152
- IC50 (Cytochrome P450 2D6): > 10 µM
- fraction unbound at 6 h, 1 ug/ml [7]: 0.092
- LBF (Canis familiaris): 11%
- LBF (Rattus norvegicus): 6%
- IC50 (Liver microsomes): < 0.7 µM
- Vd [8]: 2.4 L/kg
- Cmax [9]: 115 ng/mL
- Drug uptake (Blood): 81 ng/mL
- LBF (Cynomolgus monkey): 3%
- IC50 (Cytochrome P450 2C9): > 10 µM
- IC50 (Cytochrome P450 3A4): > 10 µM
- half-life [11]: 5 h
- bioavailability [12]: 61%
Compound: CC(C)S(=O)(=O)N[C@H]1Cc2ccc(-c3ccc(F)nc3)cc2C1 [GSK-729327]
- Activity (Homo sapiens): Non-toxic
- inhibition (INH) [10]: Not Active
